# Test results from ChEMBL document CHEMBL2010689 (J Med Chem, 2012).
# Activity calls are given as the source filed them. No cut-off for these calls is given here.
# What was measured:
# [1] = Clearance in cynomolgus monkey at 0.5 mg/kg, iv; assay type: ADME, organism-based, Macaca fascicularis; parameters: dose 0.5 mg/kg, route intravenous; conditions: in vivo
# [2] = Antitumor activity against human U251MG cells xenografted in athymic nude mouse assessed as tumor growth inhibition at 3 mg/kg, po bid measured on day 29 relative to control; assay type: functional; conditions: U-251, 696 h, read-out: GI
# A-375 [3] = assay: Antitumor activity against human A375 cells xenografted in athymic nude mouse assessed as tumor growth inhibition at 10 mg/kg, po bid measured on day 29 relative to control; assay type: functional; conditions: A-375, 696 h, read-out: GI
# Aurora kinase A = Aurora kinase A (Homo sapiens, UniProt O14965); assay: Inhibition of human Aurora-A using ATP as substrate
# P388 [4] = assay: Antitumor activity against mouse P388 cells xenografted in DBA/2 mouse assessed as mean survival at 30 mg/kg, po bid for 14 days followed by readministeration after 7 days; assay type: functional
# A-375 [5] = assay: Antitumor activity against human A375 cells xenografted in athymic nude mouse assessed as tumor growth inhibition at 3 mg/kg, po bid measured on day 29 relative to control; assay type: functional; conditions: A-375, 696 h, read-out: GI
# [6] = Clearance in Sprague-Dawley rat at 0.8 mg/kg, iv; assay type: ADME, organism-based; parameters: dose 0.8 mg/kg, route intravenous; conditions: in vivo
# [7] = Tmax in Sprague-Dawley rat at 5 mg/kg, po; assay type: ADME, organism-based; parameters: dose 5 mg/kg, route oral; conditions: in vivo
# [8] = Antitumor activity against human U251MG cells xenografted in athymic nude mouse assessed as tumor growth inhibition at 1 mg/kg, po bid measured on day 29 relative to control; assay type: functional; conditions: U-251, 696 h, read-out: GI
# [9] = Cmax in cynomolgus monkey at 3 mg/kg, po; assay type: ADME, organism-based, Macaca fascicularis; parameters: dose 3 mg/kg, route oral; conditions: in vivo
# Adenosine receptor A2a [10] = target: T1, Adenosine receptor A2a (Homo sapiens, UniProt P29274); assay: Inhibition of adenosine A2A receptor
# P388 [11] = assay: Antitumor activity against mouse P388 cells xenografted in DBA/2 mouse assessed as mean survival at 30 mg/kg, po qd for 7 days followed by readministeration
# HUVEC [12] = assay: Antiangiogenic activity in HUVEC assessed as inhibition of FGF-induced migration; assay type: functional, cell-based; conditions: Homo sapiens
# [13] = Metabolic stability in mouse liver S9 fraction assessed as compound remaining after 2 hrs; assay type: ADME, subcellular; conditions: read-out: Stability
# [14] = Toxicity in dog purkinje fibres assessed as drug-induced QT interval change; assay type: tissue-based, Canis lupus familiaris, Purkinje fiber
# [15] = target: Tyrosine-protein kinase JAK2 (Homo sapiens) (UniProt O60674); assay: Inhibition of JAK2 at 1 uM
# [16] = target: Vascular endothelial growth factor receptor 2 (Homo sapiens, UniProt P35968)
# Description: Inhibition of human recombinant VEGF-R2 expressed in baculovirus expression system using GST-PLCgamma as substrate after 1 hr by time-resolved fluorescence analysis
# [17] = target: BDNF/NT-3 growth factors receptor (Homo sapiens, UniProt Q16620); assay: Inhibition of human TRK-B using ATP as substrate
# [18] = Terminal half life in Sprague-Dawley rat at 0.8 mg/kg, iv; assay type: ADME, organism-based; parameters: dose 0.8 mg/kg, route intravenous; conditions: in vivo, read-out: beta t1/2 (converted)
# [19] = target: Hepatocyte growth factor receptor (Homo sapiens) (UniProt P08581); assay: Inhibition of cMET at 1 uM
# [20] = Plasma protein binding in human; assay type: ADME, cell-free; conditions: read-out: PPB (converted)
# P388 [21] = assay: Antitumor activity against mouse P388 cells xenografted in DBA/2 mouse assessed as mean survival at 30 mg/kg, po qd for 7 days followed by readministeration after 7 days; assay type: functional
# Adenosine receptor A2a [22] = target: T1, Adenosine receptor A2a; assay: Inhibition of adenosine A2A receptor at 10 uM
# P388 [23] = assay: Antitumor activity against mouse P388 cells xenografted in DBA/2 mouse assessed as mean survival at 30 mg/kg, po bid for 7 days followed by readministeration after 7 days; assay type: functional
# A-375 [24] = assay: Antitumor activity against human A375 cells xenografted in athymic nude mouse assessed as partial tumor regression at 1 mg/kg, po bid; assay type: functional
# [25] = Inhibition of CDK at 1 uM
# [26] = Antitumor activity against human U251MG cells xenografted in po dosed athymic nude mouse assessed as tumor growth inhibition bid measured on day 29 relative to control; assay type: functional; conditions: U-251, po, 696 h, read-out: MED
# [27] = Antitumor activity against human U251MG cells xenografted in athymic nude mouse assessed as partial tumor regression at 30 mg/kg, po bid; assay type: functional, U-251
# [28] = target: Platelet-derived growth factor receptor alpha (Homo sapiens, UniProt P16234); assay: Inhibition of human PDGFRalpha using ATP as substrate
# Mus musculus = assay: Toxicity in athymic nude mouse bearing human U251MG cells assessed as morbidity at 1 to 30 mg/kg, po; assay type: organism-based, U-251; parameters: dose 1-30 mg/kg, route oral; conditions: in vivo
# [29] = target: Muscarinic acetylcholine receptor M2 (Homo sapiens) (UniProt P08172); assay: Inhibition of muscarinic M2 receptor at 10 uM
# [30] = Antitumor activity against human U251MG cells xenografted in athymic nude mouse assessed as complete tumor regression at 3 mg/kg, po bid; assay type: functional, U-251
# HUVEC [31] = assay: Antiangiogenic activity in HUVEC assessed as inhibition of angiopoietin 1-induced chemotaxis at > = 50 nM by boyden chamber assay; assay type: functional, cell-based; conditions: Homo sapiens
# Cytochrome P450 3A4 = Cytochrome P450 3A4 (Homo sapiens, UniProt P08684); assay: Induction of CYP3A4; assay type: ADME
# Cytochrome P450 3A4, sequence (P08684 whole entry): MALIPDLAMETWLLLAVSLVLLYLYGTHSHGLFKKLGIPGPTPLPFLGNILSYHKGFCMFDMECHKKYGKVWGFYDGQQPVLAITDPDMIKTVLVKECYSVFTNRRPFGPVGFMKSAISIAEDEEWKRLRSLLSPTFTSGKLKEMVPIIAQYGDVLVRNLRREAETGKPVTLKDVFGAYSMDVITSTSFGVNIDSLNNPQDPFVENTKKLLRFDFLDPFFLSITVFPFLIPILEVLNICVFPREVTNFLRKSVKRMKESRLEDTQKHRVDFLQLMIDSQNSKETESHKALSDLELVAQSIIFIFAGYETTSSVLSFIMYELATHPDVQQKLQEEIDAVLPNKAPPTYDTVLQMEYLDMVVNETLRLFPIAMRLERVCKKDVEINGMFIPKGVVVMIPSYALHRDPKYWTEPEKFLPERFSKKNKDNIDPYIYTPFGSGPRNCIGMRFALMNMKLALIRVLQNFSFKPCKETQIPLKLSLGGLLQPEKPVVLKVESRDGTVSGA
# T1 sequence (P29274 whole entry): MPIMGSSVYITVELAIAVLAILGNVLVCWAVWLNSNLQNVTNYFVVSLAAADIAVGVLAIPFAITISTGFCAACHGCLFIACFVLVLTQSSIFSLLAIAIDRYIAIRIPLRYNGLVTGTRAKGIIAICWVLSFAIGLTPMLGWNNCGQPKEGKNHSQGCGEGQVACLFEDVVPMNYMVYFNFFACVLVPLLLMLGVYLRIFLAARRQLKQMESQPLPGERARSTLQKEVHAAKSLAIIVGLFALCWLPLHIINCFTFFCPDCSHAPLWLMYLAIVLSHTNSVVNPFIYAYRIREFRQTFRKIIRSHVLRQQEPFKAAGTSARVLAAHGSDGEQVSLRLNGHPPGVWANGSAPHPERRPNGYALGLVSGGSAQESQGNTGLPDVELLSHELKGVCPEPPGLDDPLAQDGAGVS
# BDNF/NT-3 growth factors receptor, sequence (Q16620 whole entry): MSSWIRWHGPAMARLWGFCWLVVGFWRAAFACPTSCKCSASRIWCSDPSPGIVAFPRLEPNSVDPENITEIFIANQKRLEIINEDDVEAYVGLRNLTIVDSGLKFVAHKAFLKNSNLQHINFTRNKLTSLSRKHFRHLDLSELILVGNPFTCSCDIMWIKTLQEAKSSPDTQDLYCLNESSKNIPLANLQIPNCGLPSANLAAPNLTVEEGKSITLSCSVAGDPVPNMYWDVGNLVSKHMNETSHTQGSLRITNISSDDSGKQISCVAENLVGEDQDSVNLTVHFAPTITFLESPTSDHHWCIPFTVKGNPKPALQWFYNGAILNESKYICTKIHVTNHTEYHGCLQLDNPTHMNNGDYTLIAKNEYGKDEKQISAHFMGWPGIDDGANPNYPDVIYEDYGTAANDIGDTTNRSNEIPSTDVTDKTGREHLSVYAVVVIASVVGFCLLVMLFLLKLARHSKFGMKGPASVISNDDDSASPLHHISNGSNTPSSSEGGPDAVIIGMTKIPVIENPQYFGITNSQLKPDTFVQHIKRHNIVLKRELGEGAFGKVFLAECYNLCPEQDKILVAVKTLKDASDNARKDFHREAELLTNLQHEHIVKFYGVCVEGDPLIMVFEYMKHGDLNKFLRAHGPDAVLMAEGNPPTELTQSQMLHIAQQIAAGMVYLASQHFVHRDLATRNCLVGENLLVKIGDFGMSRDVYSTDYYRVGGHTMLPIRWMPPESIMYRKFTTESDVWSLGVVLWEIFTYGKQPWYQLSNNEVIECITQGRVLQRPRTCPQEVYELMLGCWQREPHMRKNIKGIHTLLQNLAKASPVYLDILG
# Tyrosine-protein kinase JAK2 (Homo sapiens), sequence (O60674 whole entry): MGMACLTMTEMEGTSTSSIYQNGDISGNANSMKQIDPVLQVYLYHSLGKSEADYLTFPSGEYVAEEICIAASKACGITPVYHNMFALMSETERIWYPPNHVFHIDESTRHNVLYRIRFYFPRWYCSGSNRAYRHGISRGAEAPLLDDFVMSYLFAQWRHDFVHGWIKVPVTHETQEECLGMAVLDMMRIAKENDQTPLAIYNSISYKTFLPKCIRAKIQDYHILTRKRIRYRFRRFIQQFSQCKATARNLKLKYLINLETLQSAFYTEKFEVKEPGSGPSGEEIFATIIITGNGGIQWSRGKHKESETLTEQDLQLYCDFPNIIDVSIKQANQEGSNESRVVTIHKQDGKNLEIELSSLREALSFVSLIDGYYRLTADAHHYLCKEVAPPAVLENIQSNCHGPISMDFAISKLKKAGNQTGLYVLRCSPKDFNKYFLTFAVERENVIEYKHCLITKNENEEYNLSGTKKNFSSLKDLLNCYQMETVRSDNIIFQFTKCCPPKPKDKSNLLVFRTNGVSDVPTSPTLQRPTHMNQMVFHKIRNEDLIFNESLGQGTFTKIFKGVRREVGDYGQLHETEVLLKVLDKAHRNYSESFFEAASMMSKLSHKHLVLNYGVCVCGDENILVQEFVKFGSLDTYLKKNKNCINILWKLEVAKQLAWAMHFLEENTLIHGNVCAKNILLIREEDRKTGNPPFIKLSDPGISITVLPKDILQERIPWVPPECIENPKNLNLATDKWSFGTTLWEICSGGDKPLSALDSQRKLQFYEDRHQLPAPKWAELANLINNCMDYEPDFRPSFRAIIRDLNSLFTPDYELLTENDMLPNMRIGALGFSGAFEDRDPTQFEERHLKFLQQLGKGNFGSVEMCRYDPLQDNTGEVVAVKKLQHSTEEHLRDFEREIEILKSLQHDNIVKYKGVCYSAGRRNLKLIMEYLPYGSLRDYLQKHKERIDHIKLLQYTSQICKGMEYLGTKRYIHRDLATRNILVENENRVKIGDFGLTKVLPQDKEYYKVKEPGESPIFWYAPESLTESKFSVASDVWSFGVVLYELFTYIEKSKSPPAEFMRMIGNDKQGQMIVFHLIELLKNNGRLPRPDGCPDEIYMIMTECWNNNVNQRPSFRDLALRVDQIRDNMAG
# Platelet-derived growth factor receptor alpha, sequence (P16234 whole entry): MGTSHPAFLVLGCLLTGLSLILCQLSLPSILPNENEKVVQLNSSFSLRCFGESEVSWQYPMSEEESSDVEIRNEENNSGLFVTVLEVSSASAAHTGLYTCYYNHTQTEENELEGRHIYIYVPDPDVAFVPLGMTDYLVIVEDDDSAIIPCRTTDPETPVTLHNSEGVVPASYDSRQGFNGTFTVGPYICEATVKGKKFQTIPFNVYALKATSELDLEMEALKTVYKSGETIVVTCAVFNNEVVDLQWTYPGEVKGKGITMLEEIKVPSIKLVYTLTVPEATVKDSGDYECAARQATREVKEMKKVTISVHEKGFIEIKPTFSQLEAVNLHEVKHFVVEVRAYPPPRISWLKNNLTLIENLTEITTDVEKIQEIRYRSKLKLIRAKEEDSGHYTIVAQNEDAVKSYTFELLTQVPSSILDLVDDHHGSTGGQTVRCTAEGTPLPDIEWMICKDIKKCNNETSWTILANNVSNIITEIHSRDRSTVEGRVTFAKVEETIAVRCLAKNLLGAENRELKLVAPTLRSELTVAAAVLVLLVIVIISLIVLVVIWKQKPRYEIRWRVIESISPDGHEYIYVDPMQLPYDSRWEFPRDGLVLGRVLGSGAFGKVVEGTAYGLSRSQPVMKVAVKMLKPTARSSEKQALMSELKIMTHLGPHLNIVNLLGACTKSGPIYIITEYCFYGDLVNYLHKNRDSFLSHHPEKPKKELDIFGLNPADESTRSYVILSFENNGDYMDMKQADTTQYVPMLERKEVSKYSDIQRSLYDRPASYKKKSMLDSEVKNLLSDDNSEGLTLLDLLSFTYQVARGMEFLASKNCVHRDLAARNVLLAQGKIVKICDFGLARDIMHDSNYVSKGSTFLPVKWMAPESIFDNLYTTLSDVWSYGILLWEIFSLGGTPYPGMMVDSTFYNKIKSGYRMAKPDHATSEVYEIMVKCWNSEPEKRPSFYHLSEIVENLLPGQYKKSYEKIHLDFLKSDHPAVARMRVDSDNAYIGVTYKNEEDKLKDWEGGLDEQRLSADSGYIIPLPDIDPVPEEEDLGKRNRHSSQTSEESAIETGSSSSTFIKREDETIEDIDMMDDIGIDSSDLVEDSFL
# Muscarinic acetylcholine receptor M2 (Homo sapiens), sequence (P08172 whole entry): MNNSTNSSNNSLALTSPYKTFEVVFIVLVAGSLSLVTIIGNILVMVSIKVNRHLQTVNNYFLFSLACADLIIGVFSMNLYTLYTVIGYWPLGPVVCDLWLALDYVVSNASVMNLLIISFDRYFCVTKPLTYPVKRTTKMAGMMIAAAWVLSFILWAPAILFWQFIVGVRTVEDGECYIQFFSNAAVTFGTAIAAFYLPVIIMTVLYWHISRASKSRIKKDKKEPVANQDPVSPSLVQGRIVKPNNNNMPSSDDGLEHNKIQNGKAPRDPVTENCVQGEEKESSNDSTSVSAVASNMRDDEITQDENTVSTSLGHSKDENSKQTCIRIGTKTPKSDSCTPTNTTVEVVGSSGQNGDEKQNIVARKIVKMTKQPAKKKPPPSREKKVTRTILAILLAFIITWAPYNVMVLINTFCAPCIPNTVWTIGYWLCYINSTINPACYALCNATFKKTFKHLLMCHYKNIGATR
# Aurora kinase A, sequence (O14965 whole entry): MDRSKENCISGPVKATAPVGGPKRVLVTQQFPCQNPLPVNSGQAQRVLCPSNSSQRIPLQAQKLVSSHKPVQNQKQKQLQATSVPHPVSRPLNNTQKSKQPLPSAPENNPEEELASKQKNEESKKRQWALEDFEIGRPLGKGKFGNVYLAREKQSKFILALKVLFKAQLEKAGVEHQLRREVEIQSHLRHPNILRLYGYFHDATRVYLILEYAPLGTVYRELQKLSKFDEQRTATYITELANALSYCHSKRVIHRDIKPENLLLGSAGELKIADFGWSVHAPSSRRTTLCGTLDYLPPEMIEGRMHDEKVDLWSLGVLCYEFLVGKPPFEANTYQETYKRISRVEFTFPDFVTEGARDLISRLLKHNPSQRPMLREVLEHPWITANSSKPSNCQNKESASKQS
smiles,measurement,setting,value
CC(C)Cn1c2ccc(Nc3ncccn3)cc2c2c3c(c4c(c21)CCc1nn(C)cc1-4)C(=O)NC3 [CEP-11981],clearance,[1],1.08 L/h/kg
same,inhibition in vivo at 3 mg/kg,[2],61%
same,inhibition in vivo at 10 mg/kg,A-375 [3],98%
same,IC50,Aurora kinase A,0.042 µM
same,MSD,P388 [4],27.5 days
same,inhibition in vivo at 3 mg/kg,A-375 [5],90%
same,clearance,[6],0.258 L/h/kg
same,Tmax,[7],2 h
same,inhibition in vivo at 1 mg/kg,[8],43%
same,Cmax,[9],0.491 µg/mL
same,Ki,Adenosine receptor A2a [10],0.5 µM
same,MSD,P388 [11],20.5 days
same,EC50,HUVEC [12],0.008 µM
same,remaining at 2 h,[13],65%
same,Activity,[14],Non-toxic
same,inhibition,[15],Active
same,IC50,[16],0.004 µM
same,IC50,[17],0.005 µM
same,half-life,[18],1.9 h
same,inhibition,[19],Active
same,fraction unbound,[20],0.05
same,MSD,P388 [21],18.5 days
same,inhibition,Adenosine receptor A2a [22],> 80%
same,MSD,P388 [23],25 days
same,Activity,A-375 [24],10%
same,inhibition,[25],Active
same,minimal effective dose,[26],3 mg/kg
same,Activity,[27],44%
same,IC50,[28],0.246 µM
same,Activity,Mus musculus,Non-toxic
same,inhibition,[29],> 80%
same,Activity,[30],0%
same,Activity,HUVEC [31],Active
same,Activity,Cytochrome P450 3A4,Not Active
